{
  "source": "patent US20110015067A1",
  "about": "“Herbicidal Compositions Comprising Pyroxasulfone” (BASF SE, priority 2008, published 2011)",
  "key": {"harmful plants": {"test_system": "harmful plants", "conditions": "known from Y. Yamaji et al. 2006; cited from earlier work"}, "[1]": {"test_system": "BRAPL (Brachiaria plantaginea)", "assay": "post-emergence greenhouse test", "type": "in vivo", "conditions": "Urochloa plantaginea, read-out: observed % activity; for inhibition at 6.25 g/ha: use rate 6.25 g ai/ha; for inhibition at 12.5 g/ha: use rate 12.5 g ai/ha", "how_it_was_run": "(§1)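 Plants grown to 3–20 cm, then sprayed post-emergence with herbicides, solo or mixed, with or without safener, in water as carrier. Damage scored visually 0–100% versus untreated controls at 8 and/or 20 days after treatment.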"}, "[2]": {"test_system": "COMBE (Commelina benghalensis)", "assay": "post-emergence greenhouse test", "type": "in vivo", "conditions": "read-out: observed % activity; for inhibition at 6.25 g/ha: Table 18, use rate 6.25 g ai/ha; for inhibition at 12.5 g/ha: Table 20, use rate 12.5 g ai/ha", "how_it_was_run": "as §1"}},
  "note": "Like-named read-outs stand apart in the source and are kept apart here.",
  "data": [
    {"smiles": "Cn1nc(C(F)(F)F)c(CS(=O)(=O)C2=NOC(C)(C)C2)c1OC(F)F", "note": "[pyroxasulfone, 3-[5-(difluoromethoxy)-1-methyl-3-(trifluoromethyl)pyrazol-4-ylmethylsulfonyl]-4,5-dihydro-5,5-dimethyl-1,2-oxazole]", "values": [
      {"measurement": "post-emergence activity", "setting": "harmful plants", "result": "poor"},
      {"measurement": "inhibition at 6.25 g/ha", "setting": "[1]; 192 h, 8 DAT", "result": 20, "unit": "%"},
      {"measurement": "inhibition at 12.5 g/ha", "setting": "[1]; 192 h, 8 DAT", "result": 30, "unit": "%"},
      {"measurement": "inhibition at 6.25 g/ha", "setting": "[1]; 480 h, 20 DAT", "result": 40, "unit": "%"},
      {"measurement": "inhibition at 12.5 g/ha", "setting": "[1]; 480 h, 20 DAT", "result": 45, "unit": "%"},
      {"measurement": "inhibition at 6.25 g/ha", "setting": "[2]; 192 h, 8 DAT", "result": 20, "unit": "%"},
      {"measurement": "inhibition at 12.5 g/ha", "setting": "[2]; 192 h, 8 DAT", "result": 30, "unit": "%"},
      {"measurement": "inhibition at 6.25 g/ha", "setting": "[2]; 480 h, 20 DAT", "result": 20, "unit": "%"},
      {"measurement": "inhibition at 12.5 g/ha", "setting": "[2]; 480 h, 20 DAT", "result": 40, "unit": "%"}
    ]}
  ]
}
